Here are results for one compound from patent publication US20120045543A1, “SHELF-LIFE EXTENSION OF SOUR DOUGH BAKED GOODS” (ERNST BÖCKER GMBH & CO. KG, priority 2009, published 2012).

The test system of series [1] is mold. The experiment in a line: storage study of bread, mold-free time. The note with it: bread with 0.4% propionic acid added.
The subject of series [2] is P. roqueforti. Description: challenge experiment on inoculated bread slices. As to conditions: based on initial flour weight. In kind it is cell-based. The text has this: The inoculated bread slices, already after 2-4 days, had mycelia of P. roqueforti. In order to inhibit this mold fungus growth, a concentration of greater than 0.4% w/w propionic acid (based on the initial flour weight) was required.

Series [3] deals with A. niger. The experiment in a line: challenge experiment, mycelial growth on bread. In kind it is cell-based.
Series [4] in a line: loss of propionic acid during baking. In kind it is physicochemical. As to conditions: during baking and up to 24 h thereafter. As for the experimental part: Using the method known to those skilled in the art, the loss of propionic acid was determined in order to find out how much propionic acid is present in the various intermediates (dough versus baked product). […] This may be explained by the fact that at the end of the baking time the bread crumb has a temperature of at most 98° C.-106° C. Propionic acid has a boiling point of 141° C. and is therefore retained in the bread crumb during the baking to completion and also after cooling, and therefore can effect the desired protection against mold.

Series [5] has as its system mold fungi. As to conditions: pH 5.5; depending on the fungal species; cited from earlier work.
Series [6] deals with bacteria. The note with it: cited from earlier work.
For series [7] the following is noted: cited from earlier work.

`CCC(=O)O` [propionic acid]: the “mold-free time longer compared with propionic acid-free bread” value in series [1] is recorded as 14 days. The “concentration required to inhibit mold fungus growth” value in series [2] was “greater than 0.4 % w/w”. In series [3] (compared with co-fermentation giving 0.2% propionic and 0.2% acetic acid), the “chemical addition needed to achieve comparable preservation results” value was “at least 0.4%”. Moreover, the “concentration suppressing growth of A. niger up to the end of the study” value in series [3] (propionic acid alone, breads, challenge experiment) turned out to be 0.3%. The “concentration of propionic acid during baking” value in series [4] is listed as “remained roughly constant”. The “concentration inhibiting growth of mold fungi” value in series [5] is on record as 0.0125-1.25%. In series [6], the “concentration necessary for inhibition of bacteria” value is on record as 1.6-6%. In series [7], the “toxicity on oral intake” value was “not acutely toxic”.
